≈ marks a conversion by molar mass, not a printed value. Calls of active or inactive are those of the source. The rule behind the calls is not given here.
What was measured:
U-937 [1] = assay: Inhibition of TPA-stimulated TNFalpha production in human U937 cells; assay type: functional, cell-based
HL-60 = assay: Cytotoxicity against human HL60 cells after 48 hrs; assay type: functional; settings: HL-60, 48 h
RAW [2] = assay: Inhibition of LPS/IFN-gamma-induced iNOS gene expression in mouse RAW 264.7 cells; assay type: functional, cell-based
HeLa [3] = assay: Inhibition of IFN-alpha-stimulated GAS/ISRE gene promoter expression in human HeLa S3 cells by SEAP reporter gene assay; assay type: functional, cell-based
Jurkat [4] = assay: Inhibition of TPA-stimulated COX2 gene promoter expression in human Jurkat cells by luciferase reporter gene assay; assay type: functional, cell-based
RAW [5] = assay: Inhibition of LPS/IFN-gamma-induced COX2 gene expression in mouse RAW 264.7 cells; assay type: functional, cell-based
Jurkat [6] = assay: Inhibition of TPA-stimulated NF-kappaB gene promoter expression in human Jurkat cells by SEAP reporter gene assay; assay type: functional, cell-based
U-937 [7] = assay: Cytotoxicity against human U937 cells after 48 hrs; assay type: functional; settings: U-937, 48 h
[8] = Cytotoxicity against human COLO320 cells after 48 hrs; assay type: functional; settings: COLO 320, 48 h
[9] = molecular target: Mitogen-activated protein kinase 1 (Homo sapiens) (UniProt P28482); assay: Inhibition of TPA/ionomycin-induced ERK2 phosphorylation in human Jurkat cells upto 10 ug/ml by Western blotting; assay type: cell-based
Chain of Mitogen-activated protein kinase 1 (Homo sapiens) (P28482 whole entry): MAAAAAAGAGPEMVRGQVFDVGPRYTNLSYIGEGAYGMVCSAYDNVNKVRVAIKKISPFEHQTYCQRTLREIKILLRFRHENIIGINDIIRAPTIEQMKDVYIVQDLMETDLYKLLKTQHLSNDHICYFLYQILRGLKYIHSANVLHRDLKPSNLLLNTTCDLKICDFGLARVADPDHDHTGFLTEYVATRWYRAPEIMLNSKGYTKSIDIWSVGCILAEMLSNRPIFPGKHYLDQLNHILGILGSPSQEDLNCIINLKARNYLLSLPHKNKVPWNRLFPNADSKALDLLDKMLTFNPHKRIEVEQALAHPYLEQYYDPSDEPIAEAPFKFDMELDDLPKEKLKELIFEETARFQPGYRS

Jurkat [10] = assay: Inhibition of TPA-stimulated NF-AT/AP1 gene promoter expression in human Jurkat cells by SEAP reporter gene assay; assay type: functional, cell-based
[11] = molecular target: Mitogen-activated protein kinase 3 (Homo sapiens) (UniProt P27361); assay: Inhibition of TPA/ionomycin-induced ERK1 phosphorylation in human Jurkat cells upto 10 ug/ml by Western blotting; assay type: cell-based
Chain of Mitogen-activated protein kinase 3 (Homo sapiens) (P27361 whole entry): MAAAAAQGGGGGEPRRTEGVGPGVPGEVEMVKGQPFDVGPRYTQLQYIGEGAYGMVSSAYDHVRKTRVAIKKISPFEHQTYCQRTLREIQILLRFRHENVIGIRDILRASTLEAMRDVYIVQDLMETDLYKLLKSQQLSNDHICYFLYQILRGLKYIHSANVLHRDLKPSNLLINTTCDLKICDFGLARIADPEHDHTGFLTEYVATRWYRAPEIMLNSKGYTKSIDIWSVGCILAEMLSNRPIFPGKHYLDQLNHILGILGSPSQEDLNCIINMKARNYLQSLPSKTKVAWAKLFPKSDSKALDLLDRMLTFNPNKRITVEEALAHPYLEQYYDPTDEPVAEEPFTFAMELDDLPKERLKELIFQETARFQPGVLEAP

[12] = molecular target: MAP kinase p38 (Homo sapiens) (UniProt O15264+Q15759+Q16539+P53778); assay: Inhibition of TPA/ionomycin-induced p38 kinase phosphorylation in human Jurkat cells upto 10 ug/ml by Western blotting; assay type: cell-based
HeLa [13] = assay: Cytotoxicity against human HeLa S3 cells after 48 hrs; assay type: functional
Jurkat [14] = assay: Inhibition of TPA/ionomycin-stimulated human TNFalpha promoter expression in human Jurkat T cells by luciferase reporter gene assay; assay type: functional, cell-based
HeLa [15] = assay: Inhibition of TPA-stimulated AP1 gene promoter expression in human HeLa S3 cells by SEAP reporter gene assay; assay type: functional, cell-based
RAW [16] = assay: Cytotoxicity against mouse RAW […] cells after 48 hrs; assay type: functional
HepG2 [17] = assay: Cytotoxicity against human HepG2 cells after 48 hrs; assay type: functional; settings: HepG2, 48 h
HepG2 [18] = assay: Inhibition of IL6-stimulated IL6 gene promoter expression in human HepG2 cells by SEAP reporter gene assay; assay type: functional, cell-based
Jurkat [19] = assay: Cytotoxicity against human Jurkat cells after 48 hrs; assay type: functional
Jurkat [20] = assay: Inhibition of TPA/ionomycin-stimulated human TNFalpha promoter expression in human Jurkat T cells at 55 uM by luciferase reporter gene assay relative to control; assay type: functional; set-up: scale not given: the % may be the effect or the level left

| SMILES | IC50 (U-937 [1]) | IC50 (Jurkat [14]) [µM] | CC50 (HL-60) [µg/mL] | CC90 (HL-60) [µg/mL] | CC50 (U-937 [7]) [µg/mL] | CC90 (U-937 [7]) [µg/mL] | CC50 [8] [µg/mL] | CC90 [8] [µg/mL] | CC50 (HeLa [13]) [µg/mL] | CC90 (HeLa [13]) [µg/mL] | CC50 (RAW [16]) [µg/mL] | CC90 (RAW [16]) [µg/mL] | CC50 (HepG2 [17]) [µg/mL] | CC50 (Jurkat [19]) [µg/mL] | CC90 (Jurkat [19]) [µg/mL] | also measured |
| --- | --- | --- | --- | --- | --- | --- | --- | --- | --- | --- | --- | --- | --- | --- | --- | --- |
| CCOC(=O)/C=C1\NCCN1Cc1ccccc1 | 10 µg/mL |  |  |  |  |  |  |  |  |  |  |  |  |  |  |  |
| CCCCCCCCCCCC(=O)[C@]1(O)C[C@H](C(=O)O)C(C(=O)OCC)=C2N(Cc3ccccc3)CCN21 |  | 9.5 | 10 (≈ 18.9 µM) | 50 (≈ 94.6 µM) | 10 (≈ 18.9 µM) | 25 (≈ 47.3 µM) | 10 (≈ 18.9 µM) | 50 (≈ 94.6 µM) | 25 (≈ 47.3 µM) |  | 10 (≈ 18.9 µM) | 50 (≈ 94.6 µM) | > 50 | 10 (≈ 18.9 µM) | 50 (≈ 94.6 µM) |  |
| CCCCCCCCCCCC(=O)C(=O)/C=C/C(=O)O |  |  |  |  |  |  |  |  |  |  |  |  |  |  |  | Activity (Jurkat [14]): inactive |

The next lines start with results.

| IC50 (U-937 [1]) | IC50 (Jurkat [14]) [µM] | SMILES | CC50 (HL-60) [µg/mL] | CC90 (HL-60) [µg/mL] | CC50 (U-937 [7]) [µg/mL] | CC90 (U-937 [7]) [µg/mL] | CC50 [8] [µg/mL] | CC90 [8] [µg/mL] | CC50 (HeLa [13]) [µg/mL] | CC90 (HeLa [13]) [µg/mL] | CC50 (RAW [16]) [µg/mL] | CC90 (RAW [16]) [µg/mL] | CC50 (HepG2 [17]) [µg/mL] | CC50 (Jurkat [19]) [µg/mL] | CC90 (Jurkat [19]) [µg/mL] | also measured |
| --- | --- | --- | --- | --- | --- | --- | --- | --- | --- | --- | --- | --- | --- | --- | --- | --- |
| 4.6 µM | 3.6 | CCCCCCCCCCCC(=O)[C@]1(O)C[C@H](C(=O)OC)C(C(=O)OCC)=C2N(Cc3ccccc3)CCN21 | 10 (≈ 18.4 µM) | 25 (≈ 46.1 µM) | 10 (≈ 18.4 µM) | 25 (≈ 46.1 µM) | 10 (≈ 18.4 µM) | 50 (≈ 92.1 µM) | 10 (≈ 18.4 µM) | 25 (≈ 46.1 µM) | 5 (≈ 9.21 µM) | 25 (≈ 46.1 µM) | 50 (≈ 92.1 µM) | 10 (≈ 18.4 µM) | 50 (≈ 92.1 µM) | Activity (RAW [2]): inactive; IC50 (HeLa [3]): 4.6 µM; IC50 (Jurkat [4]): 4.6 µM; Activity (RAW [5]): inactive; IC50 (Jurkat [6]): 4.6 µM; Activity [9]: inactive; IC50 (Jurkat [10]): 4.6 µM; Activity [11]: inactive; Activity [12]: inactive; IC50 (HeLa [15]): 4.6 µM; IC50 (HepG2 [18]): 18.4 µM |
|  | 9.5 | CCCCCCCCCCCC(=O)[C@]1(O)C[C@H](C(=O)OCC)C(C(=O)OCC)=C2N(Cc3ccccc3)CCN21 | 10 (≈ 18 µM) | 25 (≈ 44.9 µM) | 10 (≈ 18 µM) | 25 (≈ 44.9 µM) | 10 (≈ 18 µM) | > 50 | 10 (≈ 18 µM) | 50 (≈ 89.8 µM) | 5 (≈ 8.98 µM) | 25 (≈ 44.9 µM) | 50 (≈ 89.8 µM) | 10 (≈ 18 µM) | 50 (≈ 89.8 µM) | Activity (Jurkat [20]): 25% |

Source: ChEMBL document CHEMBL1143128, “Imidazo[1,2-a]pyridine derivatives as inhibitors of TNF-alpha expression in T cells” (Bioorg Med Chem, 2008)
